{"source": "paper PMC9212912", "about": "(Structure (London, England : 1993), 2022)", "key": {"[1]": {"test_system": "native human MYST-family HAT complex purified via BRPF2 (HBO1)", "assay": "In vitro acetyltransferase assay, 3H-acetyl incorporation", "type": "biochemical", "conditions": "0.5 μg peptide, 3H Ac-CoA, 30 minutes at 30 °C, liquid scintillation"}, "[2]": {"test_system": "native human MYST-family HAT complexes purified via MEAF6 (MYST)", "assay": "In vitro acetyltransferase assay, 3H-acetyl incorporation", "type": "biochemical", "conditions": "0.5 μg peptide, 3H Ac-CoA, 30 minutes at 30 °C, liquid scintillation"}, "[3]": {"test_system": "human HAT complex NuA4/TIP60", "assay": "In vitro acetyltransferase assay", "type": "biochemical"}, "[4]": {"test_system": "human HAT complex SAGA", "assay": "In vitro acetyltransferase assay", "type": "biochemical"}, "[5]": {"target": "BRD4 ET domain (Homo sapiens, UniProt O60885)", "type": "binding", "conditions": "20 mM Tris pH 7.0, 100 mM NaCl, 3 mM DTT, 10% D2O"}, "[6]": {"test_system": "Calu-3 cells", "conditions": "0.01 µM"}}, "data": [{"molecule": "SARS-CoV-2 E^48−72: peptide, aa 48–72 of SARS-CoV-2 E, acetyltransferase substrate (NVSLVKPSFYVYSRVKNLNSSRVPD; UniProt P0DTC4 48-72, looked up, fragment)", "values": [{"measurement": "Acetylation of the peptide by HBO1 (BRPF2) complex", "setting": "[1]", "result": "able to some extent acetylate"}, {"measurement": "Acetylation of the peptide by MYST (MEAF6) complexes", "setting": "[2]", "result": "able to some extent acetylate"}, {"measurement": "Acetylation of the peptide by NuA4/TIP60", "setting": "[3]", "result": "undetectable"}, {"measurement": "Acetylation of the peptide by SAGA", "setting": "[4]", "result": "undetectable"}]}, {"molecule": "SARS-CoV-2 E^53−72: longer non-acetylated peptide, aa 53–72 of SARS-CoV-2 E (KPSFYVYSRVKNLNSSRVPD)", "values": [{"measurement": "Chemical shift perturbations in BRD4 ET upon peptide addition", "setting": "[5]", "result": "did not alter the pattern of CSPs"}]}, {"molecule": "SARS-CoV-2 E^57−69: peptide, aa 57–69 of SARS-CoV-2 E (YVYSRVKNLNSSR)", "values": [{"measurement": "Chemical shift perturbations in BRD4 ET upon peptide addition", "setting": "[5]", "result": "small CSPs"}]}, {"molecule": "Cc1sc2c(c1C)C(c1ccc(Cl)cc1)=N[C@@H](CC(=O)Nc1ccc(O)cc1)c1nnc(C)n1-2", "note": "[OTX015]", "values": [{"measurement": "Calu-3 cell viability", "setting": "[6]", "result": 98, "unit": "%"}]}]}
